Experimental data from patent publication US12516058B2, “Small-molecule compounds for controlling endosomal toll-like receptors and therapeutic agent for autoimmune diseases using same” (priority 2020, dated 2026).
Entries after “also recorded” stand apart in the source; their conditions may differ.

What was measured:
TLR3 = molecular target: T1, TLR3 (Mus musculus, UniProt Q99MB1); experiment: TNF-α secretion ELISA after TLR3 agonist poly I:C in RAW 264.7 cells; format: cell-based; conditions: for inhibition of the function of endosomal TLR3: SK01, SK16, RAW 264.7 cells, poly I:C 24 h; for inhibitory activity against endosomal TLR3 (TNF-α secretion): SK41, SK50, SK58, SK64, poly I:C
T1 construct: RAW 264.7 cells were pretreated with each candidate compound for 1 hour; endogenous in cells; host or cells: RAW 264.7
T1 sequence (Q99MB1 26-905): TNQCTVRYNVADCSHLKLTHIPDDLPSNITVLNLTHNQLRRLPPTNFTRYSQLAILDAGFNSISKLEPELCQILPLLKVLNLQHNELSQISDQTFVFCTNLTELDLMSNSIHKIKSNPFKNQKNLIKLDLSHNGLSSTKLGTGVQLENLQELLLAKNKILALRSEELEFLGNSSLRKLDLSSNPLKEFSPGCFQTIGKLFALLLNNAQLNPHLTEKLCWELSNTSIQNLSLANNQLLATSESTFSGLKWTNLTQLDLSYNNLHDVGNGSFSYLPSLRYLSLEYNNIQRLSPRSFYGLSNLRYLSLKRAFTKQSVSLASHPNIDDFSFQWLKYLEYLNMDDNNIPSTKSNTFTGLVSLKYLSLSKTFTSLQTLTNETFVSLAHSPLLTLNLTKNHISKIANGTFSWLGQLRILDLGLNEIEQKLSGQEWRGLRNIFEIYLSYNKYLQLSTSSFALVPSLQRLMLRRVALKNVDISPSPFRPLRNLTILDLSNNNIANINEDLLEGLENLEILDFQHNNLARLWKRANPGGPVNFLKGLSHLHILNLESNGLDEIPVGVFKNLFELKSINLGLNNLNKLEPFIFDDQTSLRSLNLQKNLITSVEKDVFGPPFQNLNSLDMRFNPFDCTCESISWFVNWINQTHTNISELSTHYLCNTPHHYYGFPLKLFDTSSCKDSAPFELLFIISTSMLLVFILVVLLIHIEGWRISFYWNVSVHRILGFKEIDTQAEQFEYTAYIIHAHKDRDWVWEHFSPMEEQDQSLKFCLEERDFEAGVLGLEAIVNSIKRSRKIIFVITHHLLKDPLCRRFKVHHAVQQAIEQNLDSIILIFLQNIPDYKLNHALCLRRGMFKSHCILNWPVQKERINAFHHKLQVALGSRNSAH
Description: In order to determine the inhibitory activities of the test-ligand, RAW 264.7 cells were pretreated with each candidate compound for 1 hour, then treated with Pam3CSK4 (synthetic triacyl lipopeptide; TLR1/2, Invitrogen), FSL-1 (synthetic diacyl lipoprotein, TLR2/6, 100 ng/ml), lipopolysaccharide (LPS, TLR4, Sigma Aldrich), imiquimod (IMQ, TLR7, Invitrogen), and ODN2395 (type C CpG repeat motif DNA oligo(5′-[…]-3), TLR9, Bioneer) ligand for 4 hours, and treated with poly I:C (I:C repeat motif double-stranded RNA, TLR3, Invitrogen) and TL8-506 (TLR8, Invitrogen) showing delayed reactivity for 24 hours. After activation of TLR, the supernatant was diluted in an appropriate ratio so as to measure within the standard dose range, transferred to a pre-coated 96-well assay plate, and then treated with mouse TNF-alpha secretion level in accordance with the manufacturer's instructions using a mouse-TNF-alpha ELISA-kit (Invitrogen).
In order to determine the inhibitory activities of SK41, SK50, SK58 and SK64 on various TLR signaling pathways, RAW 264.7 cells were cultured along with each compound and then stimulated with different TLR agonists. The TLR agonists used herein were Pam3CSK4 (TLR1/2), FSL-1 (TLR2/6), LPS (TLR4) and FLA-ST (TLR5) as cell surface TLRs, and poly I:C (TLR3) and TL8-506 (TLR8) as endosomal TLRs.

[1] = tested on: MRL/lpr (MRL/Fas^lpr) mice; experiment: MRL/lpr systemic lupus erythematosus mouse model, oral administration; format: in vivo; conditions: for change in body weight (index for long-term administration toxicity): daily oral, monitored at 3-day intervals; for antinuclear antibody (ANA) in blood plasma / C3 complement in blood plasma: end of experiment, ELISA, vs vehicle and HCQ 60 mg/Kg; for antinuclear antibody (ANA) in blood plasma: reaches normal as it decreases; for C3 complement in blood plasma: reaches normal as it increases; for visual (apparent) healing effect: oral once a day for 4 weeks, 15 mg/Kg for SK series and HCQ; for visual therapeutic effects: oral once a day, SK series 30 mg/Kg, HCQ 60 mg/Kg
Description: 14-weeks-old, 36-40 g, female MRL/lpr (or MRL/Fas^lpr) mice (purchased from the Jackson Laboratory, USA through Orient Bio) were used for the lupus treatment effect experiment and breeding was performed in accordance with the breeding and ethics regulations of the Laboratory Animal Research Center of the Ajou University Medical Center. Prior to the experiment, 4 to 5 animals were randomly assigned to each of a negative control group (Vehicle), a positive control group (HCQ), and an experimental compound group (SK41, SK50, SK58 and SK64) for blinding, and each of SK41, SK50, SK58, and SK64 compounds was completely dissolved in a vehicle consisting of ethanol (ethyl alcohol) 10%, polyethylene glycol 400 40% and sterile distilled water 50%, and then the solution was orally administered to experimental animals.
As for the administration method, only the same amount of vehicle was administered to the negative control group, 15-60 MPK (15-60 mg/Kg) of HCQ was administered daily to the positive control group, and SK41, SK50, SK58 and SK64 was administered daily in an amount of 15-30 MPK (15-30 mg/Kg) to the experimental compound group, […] experimental mice were 14 weeks old.
As for the sample collection method, the weight of the experimental mice was measured at 3-day intervals, and the mice were subjected to inhalational anesthesia and euthanasia using IFRAN liquid (Hana Pharmaceutical, Korea; ingredient name: Isoflurane) on the day of expiry of 40 days, and then blood, kidney, spleen and axillary lymph nodes and inguinal lymph nodes were collected therefrom.
Blood samples were collected from the heart of an anesthetized mouse, the serum was extracted therefrom using a serum separation tube and a centrifuge (4,000 rpm, 10 minutes, 4° C.), and blood concentrations of ANA (anti-nuclear Antibody, MyBioSourse, USA) as a lupus severity indicator molecule and C3 complement (MyBioSourse, USA), a comprehensive inflammatory indicator molecule, were measured through enzyme-linked immunosorbent assay (ELISA).
Organs were treated with an RNA stabilization agent (RNA Stabilization Reagent, Germany, QUIAGEN) immediately after extraction to preserve the condition and prepare specimens, the organs were imaged and weighed to determine whether or not the organs are damaged and to measure the degree of immune organ hypertrophy, and the sum of the weights of one pair of axillary lymph nodes and one pair of inguinal lymph nodes was recorded as the weight of the lymph nodes.

[2] = after administration for 40 days, 30 mg/Kg

Row | SMILES | inhibition of the function of endosomal TLR3 (TLR3) | appearance of the lymph nodes [1, 2] | change in body weight (index for long-term administration toxicity) [1] | antinuclear antibody (ANA) in blood plasma [1] | C3 complement in blood plasma [1] | visual (apparent) healing effect [1] | visual therapeutic effects [1] | inhibitory activity against endosomal TLR3 (TNF-α secretion) (TLR3) | weight of the lymph node [1, 2] | weight of the spleen [1, 2]
1 | Cc1c(C)n(CCN(C)C)c2nc3c(c(N)c12)CCCCC3 [SK01, 1-(2-(dimethylamino)ethyl)-2,3-dimethyl-1,5,6,7,8,9-hexahydrocyclohepta[b]pyrrolo[3,2-e]pyridin-4-amine] | specifically inhibit | – | – | – | – | – | – | – | – | –
2 | Cc1c(C)n(CCCN(C)C)c2nc3c(c(N)c12)CCCCC3 [SK16, 1-(3-(dimethylamino)propyl)-2,3-dimethyl-1,5,6,7,8,9-hexahydrocyclohepta[b]pyrrolo[3,2-e]pyridin-4-amine] | specifically inhibit | – | – | – | – | – | – | – | – | –
3 | Cc1cc2c(N)c3c(nc2n1CCCN(C)C)CCCCCC3 [SK41, 1-(3-(dimethylamino)propyl)-2-methyl-5,6,7,8,9,10-hexahydro-1H-cycloocta[b]pyrrolo[3,2-e]pyridin-4-amine] | – | small inguinal lymph node sizes | did not exhibit a change in body weight | significant results | significant results | superior visual (apparent) healing effect to that of HCQ | superior to HCQ | strong inhibitory activity; also recorded: specific inhibitory activities | – | –
4 | COc1ccc2c(c1)c1c(N)c3c(nc1n2CCCN(C)C)CCCC3 [SK50, 6-(3-(dimethylamino)propyl)-9-methoxy-2,3,4,6-tetrahydro-1H-indolo[2,3-b]quinolin-11-amine] | – | – | did not exhibit a change in body weight | – | – | – | – | strong inhibitory activity; also recorded: specific inhibitory activities | – | –
5 | Cc1ccc2c(c1)c1c(N)c3c(nc1n2CCCN(C)C)CCCC3 [SK58, 6-(3-(dimethylamino)propyl)-9-methyl-2,3,4,6-tetrahydro-1H-indolo[2,3-b]quinolin-11-amine] | – | relatively good | did not exhibit a change in body weight | significant results; also recorded: low antinuclear antibody | significant results; also recorded: high C3 complement | superior visual (apparent) healing effect to that of HCQ | superior to HCQ | strong inhibitory activity; also recorded: specific inhibitory activities | relatively less swollen | relatively less swollen
6 | COC(=O)c1ccc2c(c1)c1c(N)c3c(nc1n2CCCN(C)C)CCCC3 [SK64, Methyl 11-amino-6-(3-(dimethylamino)propyl)-2,3,4,6-tetrahydro-1H-indolo[2,3-b]quinolin-9-carboxylate] | – | – | did not exhibit a change in body weight | – | – | – | superior to HCQ | strong inhibitory activity; also recorded: specific inhibitory activities | – | –
